Experimental data: paper PMC12951562, “SH2scan: Mapping SH2 Domain-Ligand Binding Selectivity for Inhibitors and Degraders” (Journal of Medicinal Chemistry, 2026)
Positions count from the first letter of the chain named. Non-standard residues stand in square brackets, D forms with d. Residues, ends and D or L forms follow the SMILES beside them. pY = N[C@@H](Cc1ccc(OP(=O)(O)O)cc1)C(=O)O

Legend:
Assay in all cases: biochemical
Assay type in all cases: binding
[1] = target: T1, STAT6 (Homo sapiens, UniProt P42226)
T1 construct: made in house; host or cells: HEK293 (transient transfection), unpurified extract
T1 sequence (P42226 1-847): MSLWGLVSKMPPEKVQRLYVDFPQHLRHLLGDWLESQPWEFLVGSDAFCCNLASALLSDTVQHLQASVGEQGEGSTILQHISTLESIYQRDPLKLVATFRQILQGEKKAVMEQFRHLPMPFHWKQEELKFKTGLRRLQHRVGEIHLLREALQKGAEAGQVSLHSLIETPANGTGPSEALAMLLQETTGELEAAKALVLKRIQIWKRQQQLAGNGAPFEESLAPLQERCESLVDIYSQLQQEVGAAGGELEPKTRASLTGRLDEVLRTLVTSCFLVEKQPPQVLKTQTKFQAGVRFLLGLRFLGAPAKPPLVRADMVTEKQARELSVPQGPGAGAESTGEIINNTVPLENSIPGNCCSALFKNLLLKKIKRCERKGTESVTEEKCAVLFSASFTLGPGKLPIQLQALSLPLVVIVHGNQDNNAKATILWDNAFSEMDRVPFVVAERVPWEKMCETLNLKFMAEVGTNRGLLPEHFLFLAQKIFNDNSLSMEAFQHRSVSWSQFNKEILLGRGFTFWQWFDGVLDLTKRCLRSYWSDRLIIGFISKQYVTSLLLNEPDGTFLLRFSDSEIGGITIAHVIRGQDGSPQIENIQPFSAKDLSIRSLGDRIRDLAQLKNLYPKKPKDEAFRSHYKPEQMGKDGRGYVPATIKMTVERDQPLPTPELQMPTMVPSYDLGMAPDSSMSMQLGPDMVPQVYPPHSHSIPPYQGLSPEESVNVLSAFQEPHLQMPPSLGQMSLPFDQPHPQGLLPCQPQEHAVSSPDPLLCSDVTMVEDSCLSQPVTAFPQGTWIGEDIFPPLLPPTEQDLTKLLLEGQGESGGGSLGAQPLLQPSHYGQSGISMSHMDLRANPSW

[2] = target: T2, STAT5B (Homo sapiens, UniProt P51692)
T2 construct: made in house; host or cells: HEK293 (transient transfection), unpurified extract
T2 sequence (P51692 1-787): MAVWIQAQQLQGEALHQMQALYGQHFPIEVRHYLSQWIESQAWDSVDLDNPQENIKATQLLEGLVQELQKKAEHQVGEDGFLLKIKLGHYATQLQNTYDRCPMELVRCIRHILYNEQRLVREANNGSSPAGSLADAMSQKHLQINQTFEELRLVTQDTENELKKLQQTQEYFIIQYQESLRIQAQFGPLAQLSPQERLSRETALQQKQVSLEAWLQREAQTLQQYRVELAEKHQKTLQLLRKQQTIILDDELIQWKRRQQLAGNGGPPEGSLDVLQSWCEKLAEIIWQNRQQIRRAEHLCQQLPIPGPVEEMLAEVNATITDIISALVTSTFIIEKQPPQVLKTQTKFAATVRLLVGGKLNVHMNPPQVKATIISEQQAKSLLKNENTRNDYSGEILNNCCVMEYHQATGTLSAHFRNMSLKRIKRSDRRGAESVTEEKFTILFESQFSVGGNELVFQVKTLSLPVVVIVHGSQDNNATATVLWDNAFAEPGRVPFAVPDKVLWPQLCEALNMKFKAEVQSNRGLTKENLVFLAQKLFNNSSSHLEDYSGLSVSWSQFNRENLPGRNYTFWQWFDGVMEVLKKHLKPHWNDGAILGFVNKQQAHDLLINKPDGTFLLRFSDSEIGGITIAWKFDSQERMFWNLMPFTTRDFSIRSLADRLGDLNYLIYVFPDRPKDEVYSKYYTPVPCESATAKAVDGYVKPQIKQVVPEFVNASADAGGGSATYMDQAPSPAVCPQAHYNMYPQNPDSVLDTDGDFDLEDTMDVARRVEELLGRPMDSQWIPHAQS

[3] = target: T3, STAT5B(N642H) (Homo sapiens, UniProt P51692, N642H)
T3 construct: made in house; host or cells: HEK293 (transient transfection), unpurified extract
T3 sequence (P51692 1-787 N642H): T2 sequence (P51692 1-787) with N642H

[4] = target: T4, FER (Homo sapiens, UniProt P16591)
T4 construct: the DNA-tagged SH2 domain concentrations used in this study were <0.1 nM; made in house; host or cells: HEK293 (transient transfection; unpurified extract)
T4 sequence (P16591 460-550 limits assumed): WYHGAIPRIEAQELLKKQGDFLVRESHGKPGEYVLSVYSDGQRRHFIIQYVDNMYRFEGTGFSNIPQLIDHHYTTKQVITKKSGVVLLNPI

[5] = target: T5, STAT1 (Homo sapiens, UniProt P42224)
T5 construct: made in house; host or cells: HEK293 (transient transfection), unpurified extract
T5 sequence (P42224 1-750): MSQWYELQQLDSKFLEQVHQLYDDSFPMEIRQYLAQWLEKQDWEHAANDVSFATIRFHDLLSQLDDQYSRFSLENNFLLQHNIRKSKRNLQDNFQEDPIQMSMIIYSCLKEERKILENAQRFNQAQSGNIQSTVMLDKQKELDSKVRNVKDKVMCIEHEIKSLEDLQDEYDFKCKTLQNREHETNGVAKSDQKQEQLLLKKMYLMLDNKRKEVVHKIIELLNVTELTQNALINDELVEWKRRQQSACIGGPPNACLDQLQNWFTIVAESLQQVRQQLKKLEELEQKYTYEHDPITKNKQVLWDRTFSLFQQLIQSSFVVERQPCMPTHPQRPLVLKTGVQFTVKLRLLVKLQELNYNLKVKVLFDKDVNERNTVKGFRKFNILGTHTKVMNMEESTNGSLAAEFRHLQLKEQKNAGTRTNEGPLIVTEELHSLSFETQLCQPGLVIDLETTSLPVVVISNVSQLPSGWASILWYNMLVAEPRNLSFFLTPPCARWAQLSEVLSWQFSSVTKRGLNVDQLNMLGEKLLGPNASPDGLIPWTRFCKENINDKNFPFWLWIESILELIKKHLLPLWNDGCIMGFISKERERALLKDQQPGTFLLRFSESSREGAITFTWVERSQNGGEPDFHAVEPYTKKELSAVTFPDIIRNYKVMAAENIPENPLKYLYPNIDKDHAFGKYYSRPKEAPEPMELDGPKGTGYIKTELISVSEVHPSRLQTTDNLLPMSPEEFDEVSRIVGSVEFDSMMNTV

[6] = target: T6, PIK3R1(SH2dom.C-term.) (Homo sapiens, UniProt P27986)
T6 construct: SH2dom.C-term. denotes SH2 domain closest to C-terminus of protein; made in house; host or cells: HEK293 (transient transfection, unpurified extract)
T6 sequence (P27986 624-718 limits assumed): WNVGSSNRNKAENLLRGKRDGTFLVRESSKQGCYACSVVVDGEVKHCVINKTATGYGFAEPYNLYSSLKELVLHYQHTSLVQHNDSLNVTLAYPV

[7] = target: T7, PIK3R2(SH2dom.C-term.) (Homo sapiens, UniProt O00459)
T7 construct: SH2dom.C-term. denotes SH2 domain closest to C-terminus of protein; made in house; host or cells: HEK293 (transient transfection, unpurified extract)
T7 sequence (O00459 622-716 limits assumed): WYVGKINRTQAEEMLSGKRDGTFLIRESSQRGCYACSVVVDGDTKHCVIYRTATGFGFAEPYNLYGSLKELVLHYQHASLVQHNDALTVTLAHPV

[8] = target: T8, PIK3R3(SH2dom.C-term.) (Homo sapiens, UniProt Q92569)
T8 construct: SH2dom.C-term. denotes SH2 domain closest to C-terminus of protein; made in house; host or cells: HEK293 (transient transfection, unpurified extract)

[9] = target: T9, ABL1 (Homo sapiens, UniProt P00519)
T9 construct: the DNA-tagged SH2 domain concentrations used in this study were <0.1 nM; made in house; host or cells: HEK293 (transient transfection; unpurified extract)
T9 sequence (P00519 127-217 limits assumed): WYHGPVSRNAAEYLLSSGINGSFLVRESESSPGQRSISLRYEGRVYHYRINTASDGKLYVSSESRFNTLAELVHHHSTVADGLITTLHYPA

[10] = target: T10, STAT4 (Homo sapiens, UniProt Q14765)
T10 construct: made in house; host or cells: HEK293 (transient transfection), unpurified extract
T10 sequence (Q14765 1-748): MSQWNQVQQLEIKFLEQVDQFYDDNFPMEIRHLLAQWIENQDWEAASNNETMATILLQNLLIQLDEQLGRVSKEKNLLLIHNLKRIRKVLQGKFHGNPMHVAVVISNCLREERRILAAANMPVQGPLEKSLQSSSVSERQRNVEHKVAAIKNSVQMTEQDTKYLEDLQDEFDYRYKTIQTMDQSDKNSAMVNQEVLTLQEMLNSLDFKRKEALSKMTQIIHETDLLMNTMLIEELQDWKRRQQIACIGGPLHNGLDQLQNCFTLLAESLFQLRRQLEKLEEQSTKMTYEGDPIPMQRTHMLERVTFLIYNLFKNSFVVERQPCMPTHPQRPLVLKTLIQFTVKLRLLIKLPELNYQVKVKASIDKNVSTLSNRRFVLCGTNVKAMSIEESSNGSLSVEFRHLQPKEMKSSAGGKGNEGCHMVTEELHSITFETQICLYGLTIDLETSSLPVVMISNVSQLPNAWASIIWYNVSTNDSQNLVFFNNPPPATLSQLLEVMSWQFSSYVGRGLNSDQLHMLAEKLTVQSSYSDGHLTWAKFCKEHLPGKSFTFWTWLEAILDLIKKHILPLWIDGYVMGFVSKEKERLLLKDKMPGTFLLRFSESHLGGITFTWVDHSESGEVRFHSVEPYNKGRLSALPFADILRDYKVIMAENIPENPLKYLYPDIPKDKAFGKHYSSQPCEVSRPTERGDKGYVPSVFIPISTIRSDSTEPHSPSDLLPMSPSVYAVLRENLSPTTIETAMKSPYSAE

CC[C@H](C)[C@H](NC(=O)[C@H](CC(C)C)NC(=O)[C@H](CC(=O)O)NC(=O)[C@H](CCC(N)=O)NC(=O)[C@H](Cc1ccccc1)NC(=O)[C@@H]1CCCN1C(=O)[C@H](CCCCN)NC(=O)[C@H](Cc1ccc(OP(=O)(O)O)cc1)NC(C)=O)C(N)=O (Ac-[pY]KPFQDLI-NH2)
Kd [1]: 0.928 ± 0.249 µM

CC(C)C[C@H](NC(=O)[C@H](Cc1c[nH]c2ccccc12)NC(=O)[C@H](CCCCN)NC(=O)[C@H](CC(=O)O)NC(=O)[C@H](CC(C)C)NC(=O)[C@@H](NC(=O)[C@H](CC(C)C)NC(=O)[C@H](Cc1ccc(OP(=O)(O)O)cc1)NC(=O)[C@@H](NC(=O)[C@H](CC(=O)O)NC(=O)[C@@H](N)CCC(N)=O)[C@@H](C)O)C(C)C)C(=O)O (H-QDT[pY]LVLDKWL-OH)
Kd [2]: 1.02 ± 0.179 µM
Kd [3]: 0.0978 ± 0.0433 µM

CC(=O)N[C@@H](CC(=O)O)C(=O)N[C@@H](CCC(=O)O)C(=O)N[C@@H](Cc1ccc(OP(=O)(O)O)cc1)C(=O)N[C@@H](CCC(=O)O)C(=O)N[C@@H](CC(N)=O)C(=O)N[C@H](C(=O)N[C@@H](CC(=O)O)C(N)=O)C(C)C [Ac-DEpYENVD-NH2] (Ac-DE[pY]ENVD-NH2)
Kd [4]: 7.77 ± 2.13 µM

CC(=O)NCC(=O)N[C@@H](Cc1ccc(OP(=O)(O)O)cc1)C(=O)N[C@@H](CC(=O)O)C(=O)N[C@@H](CCCCN)C(=O)N1CCC[C@H]1C(=O)N[C@@H](Cc1c[nH]cn1)C(=O)N[C@H](C(=O)N[C@@H](CC(C)C)C(N)=O)C(C)C [Ac-GpYDKPHVL-NH2] (Ac-G[pY]DKPHVL-NH2)
Kd [5]: 0.155 ± 0.0382 µM

CSCC[C@H](NC(=O)[C@@H]1CCCN1C(=O)[C@@H](NC(=O)[C@H](Cc1ccc(OP(=O)(O)O)cc1)NC(=O)CNC(C)=O)C(C)C)C(=O)N[C@@H](CC(C)C)C(=O)O [Ac-GpYVPML-OH] (Ac-G[pY]VPML-OH)
Kd [6]: 0.00424 ± 0.00048 µM
Kd [7]: 0.00482 ± 0.00195 µM
Kd [8]: 0.00227 ± 0.00032 µM

CC(=O)N[C@@H](CCCCN)C(=O)N[C@@H](CCC(=O)O)C(=O)N[C@@H](CCC(=O)O)C(=O)NCC(=O)N[C@@H](Cc1ccc(OP(=O)(O)O)cc1)C(=O)N[C@@H](CCC(=O)O)C(=O)N[C@@H](CC(C)C)C(=O)N1CCC[C@H]1C(=O)N[C@@H](Cc1ccc(O)cc1)C(=O)N[C@@H](CC(N)=O)C(=O)N1CCC[C@H]1C(N)=O [Ac-KEEGpYELPYNP-NH2]
Kd [9]: 28.8 ± 8.13 µM

CSCC[C@H](NC(=O)[C@H](CC(=O)O)NC(=O)[C@H](Cc1ccc(OP(=O)(O)O)cc1)NC(=O)[C@H](CC(=O)O)NC(=O)[C@H](Cc1ccccc1)NC(=O)[C@H](CO)NC(C)=O)C(=O)N1CCC[C@H]1C(=O)N[C@@H](Cc1c[nH]cn1)C(=O)N[C@H](C(=O)N[C@@H](CC(C)C)C(N)=O)C(C)C [Ac-SFDpYDMPHVL-NH2] (Ac-SFD[pY]DMPHVL-NH2)
Kd [10]: 1.28 ± 0.133 µM
